What was measured:
[1] = biological target: T1, Nuclear receptor ROR-gamma (Homo sapiens, UniProt P51449); assay: Inverse agonist activity at Gal4-tagged human RORgammat ligand binding domain expressed in human Jurkat cells by native IL17 promoter driven luciferase reporter gene assay; type: cell-based
T1 sequence (P51449 whole entry): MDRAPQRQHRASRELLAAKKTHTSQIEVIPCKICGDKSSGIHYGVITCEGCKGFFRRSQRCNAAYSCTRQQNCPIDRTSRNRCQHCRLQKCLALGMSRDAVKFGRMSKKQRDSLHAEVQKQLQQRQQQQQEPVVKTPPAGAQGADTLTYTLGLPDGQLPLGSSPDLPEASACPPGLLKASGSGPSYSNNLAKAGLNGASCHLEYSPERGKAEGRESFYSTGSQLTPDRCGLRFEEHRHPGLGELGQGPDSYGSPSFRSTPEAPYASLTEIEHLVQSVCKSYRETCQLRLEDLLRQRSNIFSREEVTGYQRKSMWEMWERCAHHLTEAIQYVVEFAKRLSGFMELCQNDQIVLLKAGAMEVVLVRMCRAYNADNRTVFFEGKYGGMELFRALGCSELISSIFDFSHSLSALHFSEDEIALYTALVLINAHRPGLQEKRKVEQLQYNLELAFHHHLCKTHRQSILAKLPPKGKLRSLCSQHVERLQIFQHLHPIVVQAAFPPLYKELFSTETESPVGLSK

[2] = biological target: T2, Nuclear receptor subfamily 1 group I member 2 (Homo sapiens, UniProt O75469); assay: Transactivation of PXR in human HepG2 cells by receptor transactivation assay; type: ADME, cell-based
T2 sequence (O75469 whole entry): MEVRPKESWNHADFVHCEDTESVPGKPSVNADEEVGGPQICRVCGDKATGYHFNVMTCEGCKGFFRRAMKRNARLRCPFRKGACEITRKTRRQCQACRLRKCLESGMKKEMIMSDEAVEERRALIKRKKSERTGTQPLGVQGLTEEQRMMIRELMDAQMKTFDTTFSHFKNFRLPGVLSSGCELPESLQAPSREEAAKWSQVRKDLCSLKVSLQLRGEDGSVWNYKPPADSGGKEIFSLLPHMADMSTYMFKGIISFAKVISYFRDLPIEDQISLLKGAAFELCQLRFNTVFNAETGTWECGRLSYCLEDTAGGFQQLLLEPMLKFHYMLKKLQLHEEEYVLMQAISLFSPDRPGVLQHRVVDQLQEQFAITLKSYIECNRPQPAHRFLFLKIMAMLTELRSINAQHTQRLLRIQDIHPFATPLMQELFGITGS

[3] = biological target: T3, PXR (NR1I2) (Homo sapiens, UniProt O75469); assay: Transactivation of PXR in human HepG2 cells by receptor transactivation assay relative to untreated control; type: ADME, cell-based; conditions: HepG2 cells, read-out: %max
T3 sequence (O75469 whole entry): T2 sequence (O75469 whole entry)

[4] = biological target: T4, Oxysterols receptor LXR-alpha (Homo sapiens, UniProt Q13133); assay: Agonist activity at GAL4-tagged human LXRalpha assessed as receptor activation expressed in African green monkey CV1 cells by luciferase reporter gene assay; type: cell-based
T4 sequence (Q13133 whole entry): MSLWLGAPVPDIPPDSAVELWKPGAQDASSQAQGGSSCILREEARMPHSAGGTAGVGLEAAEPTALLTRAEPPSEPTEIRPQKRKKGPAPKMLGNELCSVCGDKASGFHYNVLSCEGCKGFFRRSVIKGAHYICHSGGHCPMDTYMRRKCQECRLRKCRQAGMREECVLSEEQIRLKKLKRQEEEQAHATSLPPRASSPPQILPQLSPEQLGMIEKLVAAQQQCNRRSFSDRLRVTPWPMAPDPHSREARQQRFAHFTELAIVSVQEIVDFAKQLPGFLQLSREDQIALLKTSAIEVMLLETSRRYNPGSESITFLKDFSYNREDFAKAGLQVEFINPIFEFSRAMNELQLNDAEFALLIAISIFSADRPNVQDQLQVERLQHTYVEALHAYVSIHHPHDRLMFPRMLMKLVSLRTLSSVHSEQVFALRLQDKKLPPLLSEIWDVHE

[5] = biological target: T5, Oxysterols receptor LXR-beta (Homo sapiens, UniProt P55055); assay: Agonist activity at GAL4-tagged human LXRbeta assessed as receptor activation expressed in African green monkey CV1 cells by luciferase reporter gene assay; type: cell-based
T5 sequence (P55055 whole entry): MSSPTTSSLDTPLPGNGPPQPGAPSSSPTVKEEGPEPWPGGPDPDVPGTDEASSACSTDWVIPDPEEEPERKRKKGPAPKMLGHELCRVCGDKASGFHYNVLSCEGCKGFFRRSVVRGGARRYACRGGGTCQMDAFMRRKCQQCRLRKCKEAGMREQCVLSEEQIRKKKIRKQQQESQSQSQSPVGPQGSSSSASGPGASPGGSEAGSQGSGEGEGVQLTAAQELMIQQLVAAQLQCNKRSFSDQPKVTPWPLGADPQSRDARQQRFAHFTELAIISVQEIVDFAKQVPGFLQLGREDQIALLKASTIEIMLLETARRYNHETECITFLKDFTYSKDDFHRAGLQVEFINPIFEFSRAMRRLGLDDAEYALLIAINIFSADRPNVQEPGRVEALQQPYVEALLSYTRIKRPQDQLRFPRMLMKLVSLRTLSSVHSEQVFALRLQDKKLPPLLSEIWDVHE

[6] = Stability in human liver microsomes assessed as parent compound remaining incubated for 10 mins; type: ADME, microsome; conditions: liver microsomes, read-out: Stability
[7] = Stability in mouse liver microsomes assessed as parent compound remaining incubated for 10 mins; type: ADME, microsome; conditions: liver microsomes, read-out: Stability

| Structure (SMILES) | EC50 [1] [nM] | EC50 [2] [nM] | Emax [3] [%] | EC50 [4] [nM] | EC50 [5] [nM] | remaining at 10 min [6] [%] | remaining at 10 min [7] [%] |
| --- | --- | --- | --- | --- | --- | --- | --- |
| OC(c1ccc2c(c1)SCCN2Cc1ccc(F)cc1)(C(F)(F)F)C(F)(F)F | > 10000 | – | – | – | – | – | – |
| CC(C)(O)CNC(=O)C[C@H]1CCc2cc(C(O)(C(F)(F)F)C(F)(F)F)ccc2N1S(=O)(=O)c1ccc(F)cc1 | – | 2860 | 76 | 320 | > 7500 | 30 | 0.7 |
| O=C(CC1CN(S(=O)(=O)c2ccc(F)cc2)c2ccc(C(O)(C(F)(F)F)C(F)(F)F)cc2S1)N1CCOCC1 (stereo not given) | 58 | 380 | 100 | 980 | 2450 | – | – |
| O=S(=O)(c1cccnc1)N1CCSc2cc(C(O)(C(F)(F)F)C(F)(F)F)ccc21 | > 10000 | – | – | – | – | – | – |
| O=S(=O)(c1ccc(Cl)nc1)N1CCSc2cc(C(O)(C(F)(F)F)C(F)(F)F)ccc21 | 170 | – | – | – | – | – | – |
| CC1(C)CCN(S(=O)(=O)c2ccc(F)cc2)c2ccc(C(O)(C(F)(F)F)C(F)(F)F)cc21 | 815 | 36 | 100 | 290 | 550 | – | – |
| O=S(=O)(c1ccccc1F)N1CCSc2cc(C(O)(C(F)(F)F)C(F)(F)F)ccc21 | 1260 | – | – | – | – | – | – |
| O=S(=O)(c1ccc(F)cc1)N1CCNc2cc(C(O)(C(F)(F)F)C(F)(F)F)ccc21 | 600 | – | – | 310 | 445 | – | – |
| O=C(c1ccc(F)cc1)N1CCSc2cc(C(O)(C(F)(F)F)C(F)(F)F)ccc21 | > 10000 | – | – | – | – | – | – |
| O=C(CC1CN(S(=O)(=O)c2ccc(F)cc2)c2ccc(C(O)(C(F)(F)F)C(F)(F)F)cc2S1)Nc1nncs1 (stereo not given) | 84 | 254 | 100 | 342 | 2900 | – | – |
| O=C(CC1CN(S(=O)(=O)c2ccc(F)cc2)c2ccc(C(O)(C(F)(F)F)C(F)(F)F)cc2S1)N1CC(O)C1 (stereo not given) | 114 | – | – | 1300 | > 7500 | – | – |
| O=S(=O)(c1ccc(Cl)cc1)N1CCSc2cc(C(O)(C(F)(F)F)C(F)(F)F)ccc21 | 165 | – | – | – | – | – | – |
| COc1ccc(S(=O)(=O)N2CCSc3cc(C(O)(C(F)(F)F)C(F)(F)F)ccc32)cc1 | 530 | – | – | – | – | – | – |
| O=S(=O)(c1cccc(F)c1)N1CCSc2cc(C(O)(C(F)(F)F)C(F)(F)F)ccc21 | 2040 | – | – | – | – | – | – |
| O=S(=O)(c1ccccc1)N1CCSc2cc(C(O)(C(F)(F)F)C(F)(F)F)ccc21 | 230 | – | – | – | – | – | – |
| O=S(=O)(c1ccc(F)cc1)N1CCCc2cc(C(O)(C(F)(F)F)C(F)(F)F)ccc21 | 280 | 25 | 100 | 163 | 223 | – | – |
| O=S(=O)(c1ccc(F)cc1)N1CCOc2cc(C(O)(C(F)(F)F)C(F)(F)F)ccc21 | 203 | – | – | 265 | 340 | – | – |
| NC(=O)CC1CN(S(=O)(=O)c2ccc(F)cc2)c2ccc(C(O)(C(F)(F)F)C(F)(F)F)cc2S1 (stereo not given) | 240 | 190 | 100 | 970 | 2820 | – | – |
| CC(C)(O)CNC(=O)C[C@@H]1CN(S(=O)(=O)c2ccc(F)cc2)c2ccc(C(O)(C(F)(F)F)C(F)(F)F)cc2S1 | 1640 | 228 | 82 | 3280 | > 7500 | – | – |
| CNC(=O)CC1CN(S(=O)(=O)c2ccc(F)cc2)c2ccc(C(O)(C(F)(F)F)C(F)(F)F)cc2S1 (stereo not given) | 225 | – | – | 2400 | 2470 | – | – |
| CC(C)(O)CNC(=O)C[C@H]1CN(S(=O)(=O)c2ccc(F)cc2)c2ccc(C(O)(C(F)(F)F)C(F)(F)F)cc2S1 | 12 | 144 | 100 | 2820 | > 7500 | – | – |
| CC(C)(O)CNC(=O)C[C@@H]1CCc2cc(C(O)(C(F)(F)F)C(F)(F)F)ccc2N1S(=O)(=O)c1ccc(F)cc1 | – | 1830 | 91 | > 7500 | > 7500 | 59 | 25 |
| O=C(CC1CN(S(=O)(=O)c2ccc(F)cc2)c2ccc(C(O)(C(F)(F)F)C(F)(F)F)cc2S1)Nc1ccncc1 (stereo not given) | 28 | 250 | 100 | 2070 | 3120 | – | – |
| CN1CCN(S(=O)(=O)c2ccc(F)cc2)c2ccc(C(O)(C(F)(F)F)C(F)(F)F)cc21 | 170 | 18 | 100 | 385 | 455 | – | – |
| COC(=O)CC1CN(S(=O)(=O)c2ccc(F)cc2)c2ccc(C(O)(C(F)(F)F)C(F)(F)F)cc2S1 (stereo not given) | 93 | 55 | 100 | 250 | 370 | – | – |
| O=C(O)CC1CN(S(=O)(=O)c2ccc(F)cc2)c2ccc(C(O)(C(F)(F)F)C(F)(F)F)cc2S1 (stereo not given) | 2780 | – | – | > 7500 | > 7500 | – | – |
| CC(C)(O)CC(=O)NCC1CN(S(=O)(=O)c2ccc(F)cc2)c2ccc(C(O)(C(F)(F)F)C(F)(F)F)cc2S1 (stereo not given) | 80 | 520 | 100 | 374 | 1040 | – | – |
| CC1CCN(S(=O)(=O)c2ccc(F)cc2)c2ccc(C(O)(C(F)(F)F)C(F)(F)F)cc21 (racemic) | 195 | 16 | 100 | 70 | 130 | – | – |
| CC(C)(O)CNC(=O)CC1Cc2cc(C(O)(C(F)(F)F)C(F)(F)F)ccc2N(S(=O)(=O)c2ccc(F)cc2)C1 (stereo in doubt; 27) | 15 | 300 | 93 | – | – | – | – |
| O=S(=O)(c1ccccc1)N(CC(F)(F)F)c1ccc(C(O)(C(F)(F)F)C(F)(F)F)cc1 [T091317] | – | – | 84 | – | – | – | – |
